# According to patent US20250195521A1 (Revolution Medicines, Inc., priority 2020, published 2025):
# Where two headings read alike, the source gives them in different places.
# Key:
# [1] = system: Capan-1 cells (K-Ras G12V); experiment: CellTiter-Glo cell viability, Capan-1; assay type: cell-based, human; settings: Homo sapiens, CAPAN-1, 120 h, K-Ras G12V, 5-day treatment; read-out: Capan-1 Cell Viability IC50
# In short: (§1)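 Viability is read as luminescence after five days of compound exposure, with plates first equilibrated to room temperature for roughly 30 minutes. Each signal is expressed as a percentage of the mean DMSO control, and curves are fitted by four-parameter logistic regression.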
# [2] = system: K-Ras G12C (NCI-H358 cells); experiment: Potency assay: pERK in NCI-H358 cells; assay type: cell-based, human; settings: Homo sapiens; NCI-H358 cells, 4 hours; read-out: pERK EC50 (H358 KRAS G12C)
# In short: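 Cells plated the day before were exposed for 4 h at 37° C, 5% CO2 to a 10-point, 3-fold DMSO dilution series (10 mM top stock), in duplicate. Phospho-ERK was read by AlphaLISA SureFire Ultra or by In-Cell Western with DRAQ5 DNA stain, and IC50 came from a 4-parameter sigmoidal fit.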
# KRAS G13D = KRAS G13D (Homo sapiens (Human), UniProt P01116+P62937, G13D); experiment: Ras-Raf disruption/FRET/MOA assay (BRAF RBD, Cyclophilin A); assay type: biochemical; settings: read-out: KRAS G13D FRET data IC50
# In short: (§2)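 Ras-GMPPNP (12.5 nM), BRAF RBD (50 nM) and 25 μM Cyclophilin A were incubated with compound for 3 h at 25° C, then detected 1.5 h with anti-His Eu and anti-GST APC; IC50 values follow from the reduced TR-FRET ratio.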
# KRAS G12D = KRAS G12D (Homo sapiens (Human), UniProt P01116+P62937, G12D); experiment: as above; assay type: biochemical; settings: read-out: KRAS G12D FRET IC50
# In short: as §2
# NRAS G12C = NRAS G12C (Homo sapiens (Human), UniProt P01111+P62937, G12C); experiment: as above; assay type: biochemical; settings: read-out: NRAS G12C FRET data IC50
# In short: (§3)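 Measured: compound-facilitated Cyclophilin A:Ras complex blocking RAF RBD binding. Conditions: 12.5 nM Ras-GMPPNP, 50 nM BRAF RBD, 25 μM CypA, 3 h plus 1.5 h detection. Output: IC50 from TR-FRET ratio.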
# KRAS WT = KRAS WT (Homo sapiens (Human), UniProt P01116+P62937); experiment: as above; assay type: biochemical; settings: read-out: KRAS WT FRET data IC50
# In short: as §2
# KRAS G12S = KRAS G12S (Homo sapiens (Human), UniProt P01116+P62937, G12S); experiment: as above; assay type: biochemical; settings: read-out: KRAS G12S FRET IC50
# In short: as §2
# KRAS G12C = KRAS G12C (Homo sapiens (Human), UniProt P01116+P62937, G12C); experiment: as above; assay type: biochemical; settings: read-out: KRAS G12C FRET IC50
# In short: as §2
# NRAS WT = NRAS WT (Homo sapiens (Human), UniProt P01111+P62937); experiment: as above; assay type: biochemical
# In short: as §3
# KRAS Q61H = KRAS Q61H (Homo sapiens (Human), UniProt P01116+P62937, Q61H); experiment: as above; assay type: biochemical
# In short: as §2
# KRAS G12V = KRAS G12V (Homo sapiens (Human), UniProt P01116+P62937, G12V); experiment: as above; assay type: biochemical; settings: read-out: KRAS G12V FRET IC50
# In short: as §2
# NRAS Q61R = NRAS Q61R (Homo sapiens (Human), UniProt P01111+P62937, Q61R); experiment: as above; assay type: biochemical
# In short: as §3
# KRAS G13C = KRAS G13C (Homo sapiens (Human), UniProt P01116+P62937, G13C); experiment: as above; assay type: biochemical; settings: read-out: KRAS G13C FRET IC50
# In short: as §2
# [3] = system: NCI-H358 cells (K-Ras G12C); experiment: CellTiter-Glo cell viability, NCI-H358; assay type: cell-based, human; settings: Homo sapiens, NCI-H358, 120 h, K-Ras G12C, 5-day treatment; read-out: H358 Cell Viability IC50
# In short: as §1
# AsPC-1 (K-Ras G12D) = experiment: Potency assay: pERK; assay type: cell-based, human; settings: Homo sapiens
# Procedure: The purpose of this assay is to measure the ability of test compounds to inhibit K-Ras in cells. […] This procedure measures a decrease in cellular pERK in response to test compounds. The procedure described below in NCI-H358 cells is applicable to K-Ras G12C.
# NCI-H358 cells were grown and maintained using media and procedures recommended by the ATCC. On the day prior to compound addition, cells were plated in 384-well cell culture plates (40 μl/well) and grown overnight in a 37° C., 5% CO2 incubator. Test compounds were prepared in 10, 3-fold dilutions in DMSO, with a high concentration of 10 mM. On the day of assay, 40 nL of test compound was added to each well of cell culture plate using an Echo550 liquid handler (LabCyte®). Concentrations of test compound were tested in duplicate. After compound addition, cells were incubated 4 hours at 37° C., 5% CO2. Following incubation, culture medium was removed and cells were washed once with phosphate buffered saline.
# In some experiments, cellular pERK level was determined using the AlphaLISA SureFire Ultra p-ERK1/2 Assay Kit (PerkinElmer). Cells were lysed in 25 μL lysis buffer, with shaking at 600 RPM at room temperature. Lysate (10 μL) was transferred to a 384-well Opti-plate (PerkinElmer) and 5 μL acceptor mix was added. After a 2-hour incubation in the dark, 5 μL donor mix was added, plate was sealed, and incubated 2 hours at room temperature. Signal was read on an Envision plate reader (PerkinElmer) using standard AlphaLISA settings. Analysis of raw data was carried out in Excel (Microsoft) and Prism (GraphPad). Signal was plotted vs. the decadal logarithm of compound concentration, and IC50 was determined by fitting a 4-parameter sigmoidal concentration response model.
# In other experiments, cellular pERK was determined by In-Cell Western. Following compound treatment, cells were washed twice with 200 μL tris buffered saline (TBS) and fixed for 15 minutes with 150 μL 4% paraformaldehyde in TBS. Fixed cells were washed 4 times for 5 minutes with TBS containing 0.1% Triton X-100 (TBST) and then blocked with 100 μL Odyssey blocking buffer (LI-COR) for 60 minutes at room temperature. Primary antibody (PERK, CST-4370, Cell Signaling Technology) was diluted 1:200 in blocking buffer, and 50 μL was added to each well and incubated overnight at 4° C. Cells were washed 4 times for 5 minutes with TBST. Secondary antibody (IR-800CW rabbit, LI-COR, diluted 1:800) and DNA stain DRAQ5 (LI-COR, diluted 1:2000) were added and incubated 1-2 hours at room temperature. Cells were washed 4 times for 5 minutes with TBST. Plates were scanned on a Li—COR Odyssey CLx Imager. Analysis of raw data was carried out in Excel (Microsoft) and Prism (GraphPad). Signal was plotted vs. the decadal logarithm of compound concentration, and IC50 was determined by fitting a 4-parameter sigmoidal concentration response model.
# [4] = ASPC1, AsPC-1 KRAS G12D, read-out: pERK EC50
# Sequence of KRAS G12C (P01116-2 other isoform, or with tags, fused parts or gaps G12C): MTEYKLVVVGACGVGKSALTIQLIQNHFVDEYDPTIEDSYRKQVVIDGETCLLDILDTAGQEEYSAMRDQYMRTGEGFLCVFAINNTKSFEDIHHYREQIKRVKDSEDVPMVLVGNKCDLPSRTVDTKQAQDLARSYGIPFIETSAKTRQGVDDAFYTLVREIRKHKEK
# Sequence of KRAS G12C (P62937 whole entry): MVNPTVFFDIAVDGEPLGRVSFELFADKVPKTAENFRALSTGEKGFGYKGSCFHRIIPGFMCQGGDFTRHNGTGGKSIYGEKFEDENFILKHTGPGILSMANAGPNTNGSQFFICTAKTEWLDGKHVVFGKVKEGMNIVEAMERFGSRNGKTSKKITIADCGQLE
# Sequence of KRAS G13C (P01116 other isoform, or with tags, fused parts or gaps G13C): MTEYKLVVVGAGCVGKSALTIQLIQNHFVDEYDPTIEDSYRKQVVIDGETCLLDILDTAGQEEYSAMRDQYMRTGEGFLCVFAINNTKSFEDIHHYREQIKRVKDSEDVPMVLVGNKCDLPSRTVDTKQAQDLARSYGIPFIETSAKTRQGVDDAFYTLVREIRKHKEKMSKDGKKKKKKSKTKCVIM
# Sequence of KRAS G13C (P62937 whole entry): as the sequence (P62937 whole entry) above
# Sequence of KRAS G12S (P01116 other isoform, or with tags, fused parts or gaps G12S): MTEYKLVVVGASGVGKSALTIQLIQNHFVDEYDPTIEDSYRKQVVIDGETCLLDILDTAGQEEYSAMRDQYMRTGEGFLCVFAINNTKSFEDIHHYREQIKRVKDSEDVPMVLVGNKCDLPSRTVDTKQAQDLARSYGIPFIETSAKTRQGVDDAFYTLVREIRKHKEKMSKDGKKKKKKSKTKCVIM
# Sequence of KRAS G12S (P62937 whole entry): as the sequence (P62937 whole entry) above
# Sequence of KRAS G12V (P01116 other isoform, or with tags, fused parts or gaps G12V): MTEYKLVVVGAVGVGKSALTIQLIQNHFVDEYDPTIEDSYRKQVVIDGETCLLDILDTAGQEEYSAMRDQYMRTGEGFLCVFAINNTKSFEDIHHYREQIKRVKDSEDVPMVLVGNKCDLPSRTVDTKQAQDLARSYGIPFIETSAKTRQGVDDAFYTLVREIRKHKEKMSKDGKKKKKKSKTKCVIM
# Sequence of KRAS G12V (P62937 whole entry): as the sequence (P62937 whole entry) above
# Sequence of NRAS G12C (P01111 whole entry G12C): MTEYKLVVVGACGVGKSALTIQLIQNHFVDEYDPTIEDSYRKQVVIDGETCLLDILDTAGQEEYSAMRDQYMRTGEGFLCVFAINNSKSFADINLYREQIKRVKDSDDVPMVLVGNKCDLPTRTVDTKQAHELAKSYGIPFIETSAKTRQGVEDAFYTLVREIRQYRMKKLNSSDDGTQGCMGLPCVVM
# Sequence of NRAS G12C (P62937 whole entry): as the sequence (P62937 whole entry) above
# Sequence of KRAS G12D (P01116 other isoform, or with tags, fused parts or gaps G12D): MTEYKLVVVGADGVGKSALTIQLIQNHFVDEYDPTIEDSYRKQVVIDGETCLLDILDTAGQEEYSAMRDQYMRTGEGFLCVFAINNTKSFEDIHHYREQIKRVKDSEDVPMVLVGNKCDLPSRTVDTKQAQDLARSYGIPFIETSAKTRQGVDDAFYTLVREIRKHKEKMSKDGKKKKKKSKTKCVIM
# Sequence of KRAS G12D (P62937 whole entry): as the sequence (P62937 whole entry) above
# Sequence of NRAS Q61R (P01111 whole entry Q61R): as the sequence (P01111 whole entry G12C) above, with C12G, Q61R counted along it
# Sequence of NRAS Q61R (P62937 whole entry): as the sequence (P62937 whole entry) above
# Sequence of KRAS Q61H (P01116 other isoform, or with tags, fused parts or gaps Q61H): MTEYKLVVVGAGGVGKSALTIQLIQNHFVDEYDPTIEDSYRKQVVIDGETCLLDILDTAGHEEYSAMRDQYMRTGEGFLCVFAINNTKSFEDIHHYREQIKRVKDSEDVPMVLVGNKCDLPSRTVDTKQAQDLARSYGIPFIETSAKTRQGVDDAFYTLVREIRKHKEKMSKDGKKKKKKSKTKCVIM
# Sequence of KRAS Q61H (P62937 whole entry): as the sequence (P62937 whole entry) above
# Sequence of KRAS WT (P01116 other isoform, or with tags, fused parts or gaps): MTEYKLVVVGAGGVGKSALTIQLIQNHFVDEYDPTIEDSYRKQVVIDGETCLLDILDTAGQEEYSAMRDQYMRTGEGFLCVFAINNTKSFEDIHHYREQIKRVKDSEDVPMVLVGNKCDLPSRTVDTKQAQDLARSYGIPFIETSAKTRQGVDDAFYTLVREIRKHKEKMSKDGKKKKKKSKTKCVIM
# Sequence of KRAS WT (P62937 whole entry): as the sequence (P62937 whole entry) above
# Sequence of KRAS G13D (P01116 other isoform, or with tags, fused parts or gaps G13D): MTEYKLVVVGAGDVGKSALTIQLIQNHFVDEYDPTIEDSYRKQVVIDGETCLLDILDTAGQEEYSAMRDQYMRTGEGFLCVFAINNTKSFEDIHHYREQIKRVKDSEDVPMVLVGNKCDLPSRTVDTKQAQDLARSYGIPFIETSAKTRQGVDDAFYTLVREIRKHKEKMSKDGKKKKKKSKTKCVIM
# Sequence of KRAS G13D (P62937 whole entry): as the sequence (P62937 whole entry) above
# Sequence of NRAS WT (P01111 whole entry): as the sequence (P01111 whole entry G12C) above, with C12G counted along it
# Sequence of NRAS WT (P62937 whole entry): as the sequence (P62937 whole entry) above
smiles,measurement,setting,value
CCn1c(-c2cccnc2[C@H](C)OC)c2c3cc(ccc31)-c1csc(n1)C[C@H](NC(=O)[C@H](C(C)C)N(C)C(=O)N1CCO[C@@H](c3ccccc3)C1)C(=O)N1CCC[C@H](N1)C(=O)OCC(C)(C)C2 [Compound A600],IC50,[1],100 to 1000 nM
same,EC50,[2],< 5000 nM
same,IC50,KRAS G13D,100 to 1000 nM
same,IC50,KRAS G12D,100 to 1000 nM
same,IC50,NRAS G12C,10 to 100 nM
same,IC50,KRAS WT,10 to 100 nM
same,IC50,KRAS G12S,100 to 1000 nM
same,IC50,KRAS G12C,10 to 100 nM
same,IC50,NRAS WT,10 to 100 nM
same,IC50,KRAS Q61H,10 to 100 nM
same,IC50,KRAS G12V,100 to 1000 nM
same,IC50,NRAS Q61R,100 to 1000 nM
same,IC50,KRAS G13C,100 to 1000 nM
same,IC50,[3],100 to 1000 nM
CCn1c(-c2cccnc2[C@H](C)OC)c2c3cc(ccc31)-c1cc(O)cc(c1)C[C@H](NC(=O)[C@H](C(C)C)N(C)C(=O)CN(C)C(=O)[C@H]1CN1)C(=O)N1CCC[C@H](N1)C(=O)OCC(C)(C)C2 [Example 42A],EC50,"AsPC-1 (K-Ras G12D); ASPC1, read-out: pERK EC50",< 5000 nM
CCn1c(-c2cccnc2[C@H](C)OC)c2c3cc(ccc31)-c1cc(O)cc(c1)C[C@H](NC(=O)[C@H](C(C)C)N(C)C(=O)c1ccc([C@@H]3CN3)cc1)C(=O)N1CCC[C@H](N1)C(=O)OCC(C)(C)C2 [Example 131],EC50,AsPC-1 (K-Ras G12D); [4],< 5000 nM
"CCn1c(-c2cccnc2[C@H](C)OC)c2c3cc(ccc31)-c1cc(O)cc(c1)C[C@H](NC(=O)[C@H](C(C)C)N(C)C(=O)N1CCN(C(=O)[C@H]3CN3)CC1)C(=O)N1CCC[C@H](N1)C(=O)OCC(C)(C)C2 [Example 177, 4-((R)-aziridine-2-carbonyl)-N-((2S)-1-(((6^3S,4S)-1^1-ethyl-2^5-hydroxy-1^2-(2-((S)-1-methoxyethyl)pyridin-3-yl)-10,10-dimethyl-5,7-dioxo-6^1,6^2,6^3,6^4,6^5,6^6-hexahydro-1^1H-8-oxa-1 (5,3)-indola-6 (1,3)-pyridazina-2 (1,3)-benzenacycloundecaphane-4-yl)amino)-3-methyl-1-oxobutan-2-yl)-N-methylpiperazine-1-carboxamide]",EC50,AsPC-1 (K-Ras G12D); [4],< 5000 nM
CCn1c(-c2cccnc2[C@H](C)OC)c2c3cc(ccc31)-c1cc(O)cc(c1)C[C@H](NC(=O)[C@H](C1CCCC1)N1CC[C@@]3(CCN(C(=O)[C@@H]4N[C@@H]4C4CC4)C3)C1=O)C(=O)N1CCC[C@H](N1)C(=O)OCC(C)(C)C2 [Example 215],EC50,AsPC-1 (K-Ras G12D); [4],< 5000 nM
CCn1c(-c2cccnc2[C@H](C)OC)c2c3cc(ccc31)-c1csc(n1)C[C@H](NC(=O)[C@H](C1CCCC1)N1CC[C@]3(CCN(C(=O)[C@@H]4N[C@@H]4C4CC4)C3)C1=O)C(=O)N1CCC[C@H](N1)C(=O)OCC(C)(C)C2 [Example 234],EC50,AsPC-1 (K-Ras G12D); [4],< 5000 nM
